In brackets after ≈: the same amount, converted by molar mass. Where two headings read alike, the source gives them in different places. One block for each compound: values may come before it.
Experiments:
[1] = tested on: stabilised thylakoid membranes; assay: Inhibition of photosynthetic efficiency of stabilised thylakoid membranes measured by fluorescence (F2-F1)/F2; type: biochemical, spinach
Description: In a specific embodiment, a fluorometer continuously illuminates weakly the photosynthetic biological material with a light emitting diode (LED) emitting light at a wavelength of 475 or at 660 nm. Better results were obtained with the 475 nm wavelength. In order to obtain a higher sensitivity for measuring the photosynthetic response to toxic molecules, the intensity of the low excitation light was adjusted so as to obtain a F1 fluorescence level slightly higher than F0.
Fluorescence measured 2 sec after turning on one LED is F1. Three additional LEDs are then turned on so as to induce actinic illumination F2. Dispersion of LEDs is illustrated in FIG. 1. Light beams are oriented so as to form together a point of convergence precisely at the level where the photodiode is read. After a specific time, selected according to the nature of the thylakoid membranes used (eg. source of thylakoids, etc.) (Table 1), of the background noise and of the level of sensitivity sought, the F2 fluorescence is measured. To determine F1 and F2, the fluorometer measures wavelengths higher than 650 nm when the illumination is at 475 nm, and higher than 700 nm when illumination is at 660 nm.
The photosynthetic efficiency is determined with the following formula (F2−F1)/F2. Preferably, the photosynthetic efficiency of the stabilised thylakoids is 0.8±0.1. Any molecule affecting the photosystems modifies either F1 or F2 which modification necessarily disrupts (increases or decreases) the photosynthetic efficiency. The inhibition curve of a particular molecule is determined by calculating the activity of the photosystems in the absence of the molecule and in the presence of the molecule and comparing both efficiency as follows as described in Conrad 1993:
Without inhibitor (wi): efficiency(wi)=(F2(wi)−F1(wi))/F2(wi) With inhibitor: Relative photosynthetic efficiency(sample)=(F2(sample)−F1(sample))/F2(wi) Percentage efficiency: efficiency (%)=(efficiency(sample)×100)/efficiency(wi) Percentage inhibition: Inhibition (%)=100−efficiency (%)
The individual test tubes (100 μL lyophilised thylakoid membranes) were resuspended in 2 mL of water or tested samples. The concentrated batch of test tubes was resuspended in water, in Buffer 1 (HEPES-NaOH 50 mM pH 7.5 buffer containing sucrose 330 mM, MgCl2 20 mM, NH4Cl 10 mM, PEG 4000 4% (p/v)); or in Buffer 2 (phosphate buffer 0.1 M pH 6.5 containing sucrose 330 mM, NH4Cl 10 mM, MgCl2 20 mM, EDTA 10 mM, PEG 4000 4% (p/v)). A combination of buffered solutions 1 and 2 may also be used. […] These different buffers rs produce different results in the detection sensitivity (see Table 3 above). The final volume obtained depends on the quantity of lyophilised membranes used (2.5 mL for 25 tests, 5 mL for 50 tests).
Before use, the tubes containing stabilised thylakoid membranes were retrieved from storage. If they were stored in the freezer or the refrigerator, they were tempered 30 minutes at room temperature and in the dark. Two milliliters of fluid samples and the required volume of MgCl2 mother solution to get 0-10 mM MgCl2 (depending on tested samples) were added to 100 μL of the thylakoids membranes formulation at a concentration of 5 μg/mL. The tubes are then shook by inversion for 2 min. […]

PSII [2] = biological target: T1, PSII (Thermosynechococcus vestitus, UniProt P0A444); settings: PSII Clark electrode (amperometry), Koblizek (2002), cited from earlier work
PSII [3] = biological target: T1, PSII; settings: cited from earlier work
[4] = tested on: Chemically immobilised thylakoids; settings: chemically immobilised thylakoids (electrochemistry), Laberge (1999); cited from earlier work
algaes native [5] = settings: algaes native (fluorescence), Jay (1997); cited from earlier work
algaes native [6] = settings: algaes native (fluorescence), Conrad (1993); cited from earlier work
[7] = tested on: Physically immobilised thylakoids; settings: physically immobilised thylakoids (electrochemistry), Laberge (2000); cited from earlier work
[8] = Buffer 1 + 5 mM MgCl2 (in cuvette)
[9] = membranes resuspended in Buffer 1
[10] = membranes resuspended in Buffer 2
[11] = stabilised thylakoid membranes of the present invention (fluorescence)

IC50 [1, 8]: >0.1 mg/L
IC50 [1, 9]: >1 mg/L
IC50 [1, 10]: >4 mg/L
Compound: CCNc1nc(N)nc(Cl)n1 [Deisopropyl atrazine]
Threshold [1, 8]: >0.1 mg/L
Threshold [1, 9]: 0.2 mg/L
Threshold [1, 10]: 1.26 mg/L

Compound: CN(C)C(=O)Nc1ccc(Cl)c(Cl)c1 [Diuron]
Threshold (PSII [2]): 0.0001 mg/L
IC50 (PSII [2]; read-out: IC50 (converted)): 81.5 µM
IC50 [1, 8]: 0.011 mg/L
Threshold [1, 8]: 0.002 mg/L
IC50 [1, 9]: 0.022 mg/L
Threshold [1, 9]: 0.0006 mg/L
IC50 [1, 10]: 0.02 mg/L
Threshold [1, 10]: <0.001 mg/L
IC50 [1, 11]: 71 mg/L
Threshold [1, 11]: 0.002 mg/L
IC50 (PSII [3]): 686 µM
IC50 [4]: 120 mg/L (≈ 515 µM)
Threshold [4]: 0.01 mg/L
IC50 (algaes native [5]): 12 mg/L (≈ 51.5 µM)
Threshold (algaes native [5]): 0.002 mg/L
IC50 (algaes native [6]): 959 mg/L (≈ 4110 µM)
IC50 [7]: 130 mg/L (≈ 558 µM)

Compound: N#Cc1cc(Br)c(O)c(Br)c1 [Bromoxynil]
IC50 [1, 8]: >0.1 mg/L
Threshold [1, 8]: >0.1 mg/L
IC50 [1, 9]: 0.443 mg/L
Threshold [1, 9]: 0.013 mg/L
IC50 [1, 10]: 0.414 mg/L
Threshold [1, 10]: 0.06 mg/L

Compound: [Hg+2] [Hg]
IC50 ([1]; incubation time 15 min): 2.5 mg/L
Threshold limit value ([1]; incubation time 15 min): 0.7 mg/L
IC50 ([1]; incubation time 30 min): 2.0 mg/L
Threshold limit value ([1]; incubation time 30 min): 0.35 mg/L
IC50 ([1]; incubation time 60 min): 2.0 mg/L
Threshold limit value ([1]; incubation time 60 min): 0.35 mg/L

Compound: O=C([O-])[O-].[Ca+2] [CaCO3]
Effect (inhibition or stimulation) on thylakoid membranes [1]: Stimulation

Compound: CCNc1nc(Cl)nc(NC(C)(C)C#N)n1 [Cyanazine]
IC50 [1, 8]: 0.028 mg/L
Threshold [1, 8]: 0.0006 mg/L
IC50 [1, 9]: 0.009 mg/L
Threshold [1, 9]: 0.002 mg/L
IC50 [1, 10]: 0.135 mg/L
Threshold [1, 10]: 0.013 mg/L
IC50 [1, 11]: 40 mg/L
IC50 [4]: 79 mg/L (≈ 328 µM)
IC50 [7]: 310 mg/L (≈ 1290 µM)

Compound: CCNc1nc(Cl)nc(NCC)n1 [Simazine]
IC50 [1, 8]: 0.942 mg/L
Threshold [1, 8]: 0.06 mg/L
IC50 [1, 9]: 0.028 mg/L
Threshold [1, 9]: 0.002 mg/L

Compound: CCNc1nc(Cl)nc(NC(C)C)n1 [Atrazine]
IC50 (PSII [2]): 301 µM
Threshold (PSII [2]): 0.0004 mg/L
Inhibition (%) ([1]; Biological apple juice, atrazine 0.01 μg/mL): 23%
Inhibition (%) ([1]; Biological apple juice, atrazine 0.1 μg/mL): 61%
Inhibition (%) ([1]; Biological apple juice, atrazine 4 μg/mL): 71%
IC50 [1, 8]: 0.04 mg/L
Threshold [1, 8]: 0.001 mg/L
Inhibition (%) ([1]; Commercial apple juice (clear), pH 7, gravimetric filtration, atrazine 0.01 μg/mL): 15%
Inhibition (%) ([1]; Commercial apple juice (clear), pH 7, gravimetric filtration, atrazine 0.1 μg/mL): 60%
Inhibition (%) ([1]; Commercial apple juice (clear), pH 7, gravimetric filtration, atrazine 4 μg/mL): 74%
Inhibition (%) ([1]; Commercial apple juice (with pulp), pH 7, gravimetric filtration, atrazine 0.01 μg/mL): 23%
Inhibition (%) ([1]; Commercial apple juice (with pulp), pH 7, gravimetric filtration, atrazine 0.1 μg/mL): 58%
Inhibition (%) ([1]; Commercial apple juice (with pulp), pH 7, gravimetric filtration, atrazine 4 μg/mL): 65%
Inhibition (%) ([1]; Commercial apple juice, pH adjusted at 7, atrazine 0.01 μg/mL): 11%
Inhibition (%) ([1]; Commercial apple juice, pH adjusted at 7, atrazine 0.1 μg/mL): 61%
Inhibition (%) ([1]; Commercial apple juice, pH adjusted at 7, atrazine 4 μg/mL): 84%
Inhibition (%) ([1]; Water, atrazine 0.01 μg/mL): 16%
Inhibition (%) ([1]; Water, atrazine 0.1 μg/mL): 60%
Inhibition (%) ([1]; Water, atrazine 4 μg/mL): 80%
% effect ([1]; atrazine 0.001 mg/L): 4.2%
% effect ([1]; atrazine 0.004 mg/L): 14.9%
% effect ([1]; atrazine 0.04 mg/L): 55.3%
% effect ([1]; atrazine 0.1 mg/L): 69.4%
IC50 [1, 9]: 0.13 mg/L
Threshold [1, 9]: 0.002 mg/L
IC50 [1, 10]: 0.33 mg/L
Threshold [1, 10]: 0.002 mg/L
calculated inhibition ([1]; sample with initial concentration of 4 mg/L of atrazine): 64.8%
detection threshold ([1]; some of the thylakoid membranes preparations): 1 ppb
IC50 [1, 11]: 40 mg/L
Threshold [1, 11]: 0.001 mg/L
IC50 (PSII [3]): 88.1 µM
IC50 [4]: 330 mg/L (≈ 1530 µM)
Threshold [4]: 0.01 to 0.05 mg/L
IC50 (algaes native [5]): 62 mg/L (≈ 287 µM)
Threshold (algaes native [5]): 0.009 mg/L
IC50 (algaes native [6]): 150 mg/L (≈ 695 µM)
IC50 [7]: 280 mg/L (≈ 1300 µM)

Compound: CCCCCCCC/C=C\CCCCCCCC(=O)O [Oleic acid]
Effect (inhibition or stimulation) on thylakoid membranes [1]: Inhibition

Compound: OO [H2O2]
Effect (inhibition or stimulation) on thylakoid membranes [1]: Inhibition

IC50 [1, 8]: 1.1 mg/L
IC50 [1, 9]: 1.08 mg/L
IC50 [1, 10]: 2.31 mg/L
Compound: CC(C)Nc1nc(N)nc(Cl)n1 [Desethyl atrazine]
Threshold [1, 8]: 0.2 mg/L
Threshold [1, 9]: 0.013 mg/L
Threshold [1, 10]: 0.2 mg/L

Compound: Phosphates
Effect (inhibition or stimulation) on thylakoid membranes [1]: Stimulation

Compound: [Zn+2] [Zn]
IC50 ([1]; incubation time 15 min): >100 mg/L
Threshold limit value ([1]; incubation time 15 min): 16 mg/L
IC50 ([1]; incubation time 30 min): 70 mg/L
Threshold limit value ([1]; incubation time 30 min): 16 mg/L
IC50 ([1]; incubation time 60 min): 34 mg/L
Threshold limit value ([1]; incubation time 60 min): 7.1 mg/L

Compound: Nitrates
Effect (inhibition or stimulation) on thylakoid membranes [1]: Weak inhibition

Compound: [Cl-].[Na+] [NaCl]
Effect (inhibition or stimulation) on thylakoid membranes [1]: Stimulation

Compound: CC(C)N1C(=O)c2ccccc2NS1(=O)=O [Bentazon]
IC50 [1, 8]: >4 mg/L
Threshold [1, 8]: >4 mg/L
IC50 [1, 9]: >4 mg/L
Threshold [1, 9]: 2 mg/L
IC50 [1, 10]: >4 mg/L
Threshold [1, 10]: 1.22 mg/L

Compound: [Ni+2] [Ni]
IC50 ([1]; incubation time 15 min): >100 mg/L
Threshold limit value ([1]; incubation time 15 min): 35 mg/L
IC50 ([1]; incubation time 30 min): >100 mg/L
Threshold limit value ([1]; incubation time 30 min): 7.1 mg/L
IC50 ([1]; incubation time 60 min): >100 mg/L
Threshold limit value ([1]; incubation time 60 min): 7.1 mg/L

Compound: CCC(=O)Nc1ccc(Cl)c(Cl)c1 [Propanil]
IC50 [1, 8]: 0.068 mg/L
Threshold [1, 8]: 0.0006 mg/L
IC50 [1, 9]: 0.179 mg/L
Threshold [1, 9]: 0.002 mg/L
IC50 [1, 10]: 0.221 mg/L
Threshold [1, 10]: 0.013 mg/L

Compound: Ammoniacal nitrogen
Effect (inhibition or stimulation) on thylakoid membranes [1]: Stimulation

Compound: CCCCCCCCCCCCCCCCCC(=O)O [Stearic acid]
Effect (inhibition or stimulation) on thylakoid membranes [1]: Stimulation
